# Experimental data reported in patent publication US10010559B2, “Use of derivatives containing C-O-P bonds in patients with kidney failure” (LABORATORIOS SANIFIT, S.L., priority 2013, dated 2018).
# How the values were obtained:
# [1] = In vitro affinity (adsorption) of IP6 for hydroxyapatite; type: binding
# Experimental: Objective; the objective of this study is to analyse the affinity of IP6 for the target thereof, thereby obtaining a curve for the affinity of IP6 for HAP.
# […] The total quantity of IP6 bound to the surface of the target (HAP) was quantified.
# To characterise the behaviour of IP6 binding, the EC50 and Emax for the adsorption thereof on HAP were calculated. This was performed using a non-linear regression model (Log [agonist] vs. response−slope variable; GraphPad Prism software).
# [2] = In vitro binding kinetics of IP6 to HAP; details: 130 mg HAP
# Experimental: Objective: to analyse the binding rate of IP6 to HAP.
# Experimental: 130 mg HAP was incubated (in triplicate) with 7.6 μM IP6, at 37° C., pH 7.4, for different time intervals while stirring continuously.
# [3] = PK profile of IP6 s.c. in rats with normal and diminished kidney function; type: in vivo, Wistar rats
# Experimental: Objective: to evaluate the PK profile for rats with normal kidney function and renal impairment. Experimental: a single s.c. dose (10 mg/kg) was administered to rats with normal kidney function. Plasma samples were obtained at different timepoints up to 60 minutes. A different group of Wistar rats received oral treatment with adenine 600 mg/kg (p.o.) for 10 days to induce renal impairment. Alpha-calcidol (300 ng/kg) was administered on days 11 and 13 and plasma samples were collected at different timepoints up to 60 minutes on day 14. The plasma IP6 concentrations were quantified for both groups.
# [4] = PK profile of IP6 by 4 h intravenous infusion in normal and uraemic rats; type: in vivo, Wistar rats
# Experimental: Objective: to evaluate the PK profile for IP6 in rats with normal kidney function and non-dialysed rats with renal impairment by intravenous infusion.
# Experimental: Wistar rats with normal kidney function were treated daily with a dose of 10 or 50 mg/kg IP6 by intravenous fusion over 4 h. Plasma samples were obtained at different timepoints up to 4 hours on day 0. The animals were then treated orally with 600 mg/kg (p.o.) adenine for 10 days to induce renal impairment. The animals were treated with alpha-calcidol (300 ng/kg) on days 11 and 13 and plasma samples were collected at different timepoints up to 4 hours on day 14. The plasma IP6 levels were quantified for both groups.
# [5] = system: vitamin D-induced cardiovascular calcification; assay: Inhibition of vit D-induced (75,000 IU/kg x5) cardiovascular calcification by intravenous IP6; type: in vivo, Sprague Dawley (SD) rats
# Experimental: Objective: to evaluate the efficacy of intravenous IP6 in inhibiting vitamin D-induced cardiovascular calcification in rats. Experimental: male Sprague Dawley (SD) rats were divided into 7 groups and IP6 was administered intravenously daily for 14 days at a dose of 0, 0.05, 0.1, 0.5, 1, 5 and 10 mg/kg. Calcification was induced by oral administration of 75,000 IU/kg vitamin D on treatment days 3 to 7. Samples were collected. On day 14 the aortas and hears of the animals were collected to quantify calcification.
# [6] = system: vit D-induced cardiovascular calcification; assay: Inhibition of vit D-induced (300,000 IU/kg x3) cardiovascular calcification by s.c. IP6; type: in vivo, SD rats
# Experimental: Objective: to evaluate the efficacy of s.c. IP6 for inhibiting vit D-induced cardiovascular calcification in rats. Experimental: male SD rats were divided into 9 groups. Two of said groups (sham and control groups) received s.c. saline 2 ml/kg; 6 groups received s.c. […] One group was treated with a s.c. Alzet pump loaded with 200 mg/ml IP6. Calcification was induced by oral administration of 300,000 IU/kg vitamin D (2 ml/kg) for 3 days starting on treatment day 3. […] The calcium content in heart, aorta and kidneys was determined after treatment for 7 days.
# [7] = system: tissue calcification in chronic renal impairment model (5/6 nephrectomised rats); assay: 5/6 nephrectomy model, IP6 i.v. bolus; type: in vivo, SD rats; details: i.v. bolus 1 or 5 mg/kg, 8 weeks
# Experimental: Objective: to determine the efficacy of intravenous IP6 in the prevention of tissue calcification in a chronic renal impairment model (5/6 nephrectomised rats).
# Experimental: 48 SD rats were 5/6 nephrectomised by complete right lateral nephrectomy and ⅔ partial nephrectomy of the left kidney. 16 animals per group were treated intravenously (bolus) with 2 ml/kg saline, 1 mg/kg IP6 or 5 mg/kg IP6. The animals received a phosphate-rich diet (1% Ca, 1.2% P) containing 20% lactose. After 8 weeks the aorta, heart and remaining ⅓ kidney were collected and the tissue calcium content determined.
# [8] = system: tissue calcification in chronic renal impairment model (adenine); assay: Adenine model, bolus-type s.c. IP6; type: in vivo, Wistar rats; details: s.c. bolus 3, 10 and 30 mg/kg, 28 days, adenine rats
# Experimental: Objective: to determine the efficacy of IP6 in the prevention of tissue calcification in an animal model of chronic renal impairment (adenine).
# Experimental: CKD was induced in 4 groups (n=12) of male Wistar rats by oral (p.o.) treatment with adenine (600 mg/kg/day) daily for 10 days. After treatment with adenine, the rats received alpha-calcidol at a dose of 300 ng/kg (3×/week, p.o.) until day 28. From day 0 until sacrifice (day 28), the animals were treated with a 2 ml/kg s.c. bolus of 0, 3, 10 and 30 mg/kg IP6. At each treatment, 3 additional animals were included to evaluate the […] for IP6. After 28 days the aorta, heart and right kidney were collected and the tissue calcium content determined.
# [9] = system: tissue calcification in uraemic animals; assay: Adenine model, non-bolus intravascular infusion of IP6; type: in vivo, Wistar rats
# Experimental: Objective: to determine the efficacy of IP6 as a non-bolus type administration in the prevention of tissue calcification in uraemic animals.
# Experimental: CKD was induced in 2 groups (n=12) of male Wistar rats by oral (p.o.) treatment with adenine (600 mg/kg/day) daily for 10 days. After treatment with adenine, the rats received alpha-calcidol at a dose of 300 ng/kg (3×/week, p.o.) until day 28. From day 0 until sacrifice (day 28), the animals were treated with an intravascular infusion of 50 mg/kg IP6 or saline for 4 hours. After 28 days the aorta and heart were collected and the tissue calcium content determined.
# [10] = Calcium chelation by IP6 in vitro; type: physicochemical; details: 2.5 mM calcium in 0.15 M NaCl, pH 7.40
# Experimental: Objective: to evaluate the ionic calcium chelation potential of IP6. Experimental: a 2.5 mM of calcium in NaCl 0.15 M, pH 7.40, was pipetted with increasing concentrations of IP6. The amount of free ionic calcium was measured potentiometrically using a calcium-selective electrode and a potentiometer.
# [11] = system: ECG and serum ionic calcium; assay: Cardiovascular function after 2 h intravascular infusion of IP6 in conscious dogs (telemetry); type: in vivo; details: for peak IP6 level: dogs
# Experimental: Objective: to determine the effects of a non-bolus type administration of IP6 on the electrocardiogram (ECG) and serum ionic calcium concentrations.
# Experimental: 4 male dogs were treated with 3, 10 and 30 mg/kg IP6 by infusion for 2 h in a Latin square design. A washout period of one week was performed between doses. ECGs were measured telemetrically at 1 h and 20 minutes prior to infusion and 5, 15, 30, 45 minutes, 1, 2, 6 and 24 h post-infusion. In a second stage, blood samples were taken for PK, for the same doses, at 20 minutes prior to infusion and 5, 15, 30 minutes and 1, 1.5, 2, 3 and 6 h post-infusion. In this case the washout period between doses was 2 days. […]
# [12] = system: serum ionic calcium, ECG and clinical signs; assay: Cardiovascular function after bolus intravenous IP6 in conscious dogs (telemetry); type: in vivo
# Experimental: Objective: to examine the effects of a bolus-type administration of IP6 in serum ionic calcium, ECG and clinical signs in dogs. Experimental: 4 male dogs, 2 per dose, were injected with 10, 15 and 30 mg/kg. Two washout days were introduced between the different doses. The ECGs were recorded telemetrically. Blood ionic calcium concentrations were determined on different days to the ECG measurements.
# [13] = Administration of IP6 via the dialysis system (closed circuit, human blood); type: in vitro ADME
# Experimental: Objective: to establish the dialysability of IP6 in human blood using a real dialysis system and the effect thereof on calcium chelation.
# Experimental: 1 liter of human blood obtained from patients undergoing therapeutic phlebotomy was introduced into a recipient forming a closed dialysis circuit to simulate a real dialysis. Two experiments were performed (administration pre- and post-dialyser, both in bypass and dialysis mode), administering IP6 to human blood for 20 minutes when outside the recipient (which simulated the animal or human body) and circulating via the dialysis circuit. The recipient containing 1 liter of whole blood at a controlled temperature of 37° C. is connected to the dialysis apparatus to form a closed circuit. The dialysis apparatus will be connected for 1 hour (dialysis fluid flow of 500 ml/min and blood flow of 350 ml/min). Blood samples are collected at different times to determine the IP6 and ionic calcium levels.
# [14] = HAP crystallisation induction period (synergy with other treatments); type: physicochemical
# Experimental: Objective: to evaluate the potential synergies between the effects of IP6 and the effects of other treatments for renal impairment.
# Experimental: hydroxyapatite (HAP) was crystallised by mixing appropriate concentrations of calcium and phosphate at pH 7.4. The effect of cinacalcet and sevelamer was simulated by suitably modifying the calcium and phosphate concentrations. The induction period (time required for HAP to begin to crystallise) was recorded as the analytical signal.
# [15] = normal Wistar rats, s.c. 10 mg/kg
# [16] = i.v. between 1 and 10 mg/kg daily for 14 days
# [17] = intravascular infusion 50 mg/kg for 4 hours, day 0-28, uraemic rats
# [18] = without IP6, drug effect simulated by modifying calcium and phosphate concentrations
molecule,measurement,setting,value
"O=P(O)(O)O[C@H]1[C@H](OP(=O)(O)O)[C@@H](OP(=O)(O)O)[C@H](OP(=O)(O)O)[C@@H](OP(=O)(O)O)[C@H]1OP(=O)(O)O [IP6, inositol hexaphosphate]",Emax for adsorption on HAP (saturation),[1],6.42 mg/g
same,maximum adsorption of IP6 on the HAP surface,"[1]; 300 mg HAP, 7.6 μM IP6, 8 hours",4.8 mg
same,IP6 concentration at saturation of adsorption on HAP,"[1]; 37° C., pH 7.4",≥ 7.6 µM
same,time to adsorption maximum,"[2]; 7.6 μM IP6, 37° C., pH 7.4",60 min
same,fraction of maximum binding achieved,"[2]; after 5 minutes, 7.6 μM IP6",Around 80%
same,duration of measurable plasma levels,[3]; [15],at least 30 minutes
same,peak plasma concentration,[3]; [15],7.4 µM
same,time of peak concentration post-administration,[3]; [15],15 min
same,metabolites detected,"[3]; plasma, rats","Lower inositol phosphates (IP5, IP4, IP3, IP2, IP1) and inositol"
same,peak plasma concentration,"[3]; uraemic rats (adenine), s.c. 10 mg/kg",1.8 µM
same,peak plasma concentration,"[4]; normal rats, 10 mg/kg i.v. infusion over 4 h",8.4 µM
same,peak plasma concentration,"[4]; normal rats, 50 mg/kg i.v. infusion over 4 h",68.4 µM
same,peak plasma concentration,"[4]; uraemic rats, 10 mg/kg i.v. infusion over 4 h",2.8 µM
same,peak plasma concentration,"[4]; uraemic rats, 50 mg/kg i.v. infusion over 4 h",24.6 µM
same,time approximately constant plasma concentration maintained,"[4]; uraemic rats, 50 mg/kg infusion, from hour 1 to hour 4",3 h
same,effect on mineral content of the aorta and heart,[5]; i.v. 0.05 to 0.5 mg/kg daily for 14 days,did not affect
same,reduction of calcification in aorta,[5]; [16],up to 60%
same,reduction of calcification in heart,[5]; [16],≤ 68%
same,efficacy (inhibition of calcification),[6]; s.c. 60 mg/kg,approximately 60%
same,efficacy (inhibition of calcification),[6]; s.c. 100 mg/kg,approximately 60%
same,minimum dose that produced a significant effect on calcification,"[6]; s.c., aorta",10 mg/kg
same,"calcification inhibition (aorta, heart, remaining kidney)",[7],no evidence of calcification inhibition
same,"calcification inhibition (aorta, heart, right kidney)",[8],no evidence of calcification inhibition
same,reduction in average calcification in the aorta,[9]; [17],80%
same,reduction in average calcification in the heart,[9]; [17],85%
same,reduction of plasma IP6 levels by the end of the experiment,"[9]; uraemic rats, due to high metabolic rate",90%
same,IP6 concentration at saturation of calcium chelation,[10],3788 µM
same,IP6 concentration with significant ionic calcium chelation,[10],about 379 μM
same,peak IP6 level,[11]; 3 mg/kg infusion 2 h,27 µM
same,peak IP6 level,[11]; 10 mg/kg infusion 2 h,150 µM
same,peak IP6 level,[11]; 30 mg/kg infusion 2 h,482 µM
same,"state of health, weight, cardiorespiratory function, ECG, body temperature, total and free potassium in blood","[11]; infusion for 2 h, 3, 10 and 30 mg/kg, any dose",relatively unaffected
same,overall effects on dogs,"[11]; infusion of 3, 10 and 30 mg/kg for 2 h",no negative effects
same,ECG findings,"[12]; i.v. bolus above 15 mg/kg, becoming significant above 30 mg/kg",mild tachycardia and prolonged QTc interval
same,decrease in ionic calcium,"[12]; i.v. bolus, correlated with prolonged QTc",30%
same,dialysability of IP6,[13]; administration via dialysis line for 20 minutes,not lost via the dialysis membrane
same,effect on free calcium,[13]; apparatus in bypass mode,chelates (sequesters) free calcium
same,effect on ionic calcium,[13]; apparatus in dialysis mode,ionic calcium levels are restored
same,induction period of HAP crystallisation,"[14]; 11.4 μM IP6, pH 7.4, control 8 minutes",28 min
same,combination effect on induction period,[14]; IP6 0-11.4 μM with simulated cinacalcet or sevelamer,clear synergistic effect
"C[C@@H](NCCCc1cccc(C(F)(F)F)c1)c1cccc2ccccc12 [cinacalcet, reference compound]",induction period of HAP crystallisation,[14]; [18],14 min
"O=P([O-])([O-])OP(=O)([O-])[O-].[Na+].[Na+].[Na+].[Na+] [pyrophosphate, sodium pyrophosphate, reference compound]",efficacy on calcification,"[6]; s.c., at higher doses than IP6",good efficacy
sevelamer [reference compound],induction period of HAP crystallisation,[14]; [18],15 min
